Measured values as given in US20260259222A1, “METHOD OF DIAGNOSING WOUNDS” (TRAUMA CARE CONSULT TRAUMATOLOGISCHE FORSCHUNG …, priority 2022, published 2026).

Experiments:
[1] = tested on: p-rpS6 in human dermal fibroblasts (HDFs); experiment: in vitro scratch assay, p-rpS6-positive cells (immunofluorescence); assay type: cell-based; conditions: HDFs in basal medium; pre-treatment 10 to 30 min prior to scratch with 20 nM rapamycin or 10 μM U0126; fixed 30 min after scratch; vs DMSO
Method: (§1) To model a skin wound in vitro, cell cultures were subjected to a damage assay to monitor cellular response mechanisms. Commercially available human dermal fibroblasts (HDFs) were cultured in HDF medium (DMEM/F12 (Sigma Aldrich), 10% fetal bovine serum (Sigma Aldrich) and 4 mM L-Glutamine (Gibco)), subcultivated at 90% confluency and used for experiments below passage 15. Immortalised human keratinocytes (HaCaT) were maintained in HACAT medium (DMEM high glucose (Sigma Aldrich), 10% fetal bovine serum (Sigma Aldrich) and 2 mM L-Glutamine (Gibco) and subcultivated at 60% confluency. All cell culture experiments were performed in a humidified incubator at 37° C. and 5% CO2. […]
(§2) For immunofluorescence staining, the coverslips containing damaged and control cells were permeabilized using 0.5% Triton X100 for 5 min, washed three times with PBS for 5 min each, and blocked using PBS with 5% goat serum (VECS-1000, Vector Laboratories) for 1 h. […] For quantification of rpS6 and Erk phosphorylation, ten images per slide were taken along the scratch using an inverted microscope Nikon (Nikon Corporation, Tokyo, Japan) with set exposure times. These images were processed and quantified for total cell count and activated cell count (p-rpS6 or p-ERK positive cells) using set thresholds and particle analysis in Fiji. […]

[2] = tested on: p-Erk in human dermal fibroblasts (HDFs); experiment: in vitro scratch assay, p-Erk-positive cells (immunofluorescence); assay type: cell-based; conditions: HDFs in basal medium; pre-treatment 10 to 30 min prior to scratch with 20 nM rapamycin or 10 μM U0126; fixed 30 min after scratch; vs DMSO
Method: as §1, §2

N#CC(=C(/N)Sc1ccccc1N)/C(C#N)=C(\N)Sc1ccccc1N [U0126]
effect on p-rpS6 induction (number of cells positive for p-rpS6) in the scratch assay [1]: no significant effect on rpS6 phosphorylation
effect on Erk phosphorylation (number of cells positive for p-Erk) in the scratch assay [2]: almost completely abrogating p-Erk-positive cells
